In patent US20260014125A1, “BICYCLIC-TYPE MAT2A INHIBITOR AND USE THEREOF” (HAIHE BIOPHARMA CO., LTD., priority 2022, published 2026):

What was measured:
KP-4 cells = test: Human pancreatic cancer KP-4 cell activity inhibition test (CellTiter-Glo); type: cell-based; details: 5 days
Description: Experimental principle: after co-incubating the MAT2A inhibitor to be tested with KP-4 cells for a period of time, a cell viability measurement method based on ATP content is used to characterize the effect of the tested compound on cell viability.
Experimental material: KP-4 cells (JCRB #JCRB0182); IMDM (Gibco 912440061); fetal bovine serum (EXCELL #FND500); penicillin-streptomycin (Gibco #15140-122); 0.25% Typsin-EDTA (Gibco #252(101-072); DMSO (Sigma #D2650); 96 well plate (Corning #3610); CellTiter-Glo (Promega #G7571)
1. KP-4 cells were cultured in IMDM culture medium containing 10% e fetal bovine serum and 1% penicillin-streptomycin at 37° C. and 5% CO2 in a cell culture incubator. Only cells in logarithmic growth phase were used for subsequent experiments.
2. The cells in logarithmic growth phase were inoculated into a 96 well plate, with a seeding quantity of 500 cells per well, and incubated overnight in a cell culture incubator at 37′C and 5% CO2.
3. The compound was dissolved with DMSO, diluted with culture medium to 10 different concentrations (approximately […]), 3333.3, 1111.1, 370, 123, 41.2, 13.7, 4.6, 1.5, and 0.5 nM) before adding it to the cell plate, and cultured at 37° C. and 5% CO2 for 5 days.
4. CellTiter-Glo reagent was added, and an enzyme-linked immunosorbent assay reader was used to detect cell viability.
Data analysis: the inhibition rate (%) of the compound was calculated and fitted to obtain the IC50 of the tested compound. Calculation method for compound inhibition rate: Compound inhibition rate (%)=(Signal_max−Signal_sample)/(Signal_max−Signal_min)×100, wherein Signal_sample was the sample well reading, indicating the cell activity of the compound inhibition well; Signal_min was the positive control well reading, indicating the background activity without cells; and Signal_max was the negative control well reading, indicating the cell activity of the well without compound inhibition.

MAT2A = MAT2A (Homo sapiens (Human), UniProt P31153); test: Biochemical test: inhibition of MAT2A enzyme activity (phosphate detection, OD620); details: MAT2A his-tag; 150 minutes enzymatic reaction
MAT2A, sequence (P31153 whole entry): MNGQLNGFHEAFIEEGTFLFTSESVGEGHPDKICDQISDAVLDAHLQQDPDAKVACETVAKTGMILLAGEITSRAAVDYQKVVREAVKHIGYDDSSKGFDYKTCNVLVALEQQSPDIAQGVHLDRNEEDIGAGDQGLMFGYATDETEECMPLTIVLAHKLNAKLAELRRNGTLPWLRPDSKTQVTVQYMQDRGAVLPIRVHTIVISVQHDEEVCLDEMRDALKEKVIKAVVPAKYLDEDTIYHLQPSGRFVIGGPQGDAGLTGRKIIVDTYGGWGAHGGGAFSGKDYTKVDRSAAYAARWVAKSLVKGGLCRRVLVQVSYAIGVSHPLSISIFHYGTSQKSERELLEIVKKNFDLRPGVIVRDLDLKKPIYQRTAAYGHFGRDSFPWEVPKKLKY
Description: Experimental principle: MAT2A can catalyze the conversion of L-methionine and ATP into SAM, inorganic phosphate, and inorganic diphosphate. By adding a chromogenic reagent to the enzymatic reaction system, the content of inorganic phosphates in a sample can be quantitatively detected, thereby characterizing the enzymatic activity of MAT2A.
Experimental material: Tris (Life Science #0497); BSA (Sigma #); MAT2A his-tag (BPS #71401-1); 384 well plate (Corning #3765); L-methionine (Admas #1100469); ATP (Sigma #A7699); MgCl2 (Sigma #M8266); KCl (Sigma #7447-40-7); Brij35 (Sigma #B4184); EDTA (Sigma #E1644)
1. 1×Assaybuffer (buffer composition: Tris, KCl, MgCl2, BSA, Brij35, and EDTA; the solvent was ultrapure water) was prepared. MAT2A his-tag enzyme solution (containing 1.3 μL of MAT2A enzyme and 998.7 μL of 1×Assaybuffer per 1000 μL) and substrate mixed solution (containing 5 μL of ATP, 1.3 μL of L-methionine, and 993.7 μL of 1×Assaybuffer per 1000 μL) were prepared using 1×AssayBuffer.
2. Preparation of compound concentration gradient: The test compound was tested with a starting concentration of 10 μM, and 10 equimolar concentrations were set according to a 3-fold dilution. Specifically, firstly, the compound was diluted into 10 different concentrations of series solutions in a 384 well plate (with final detection concentrations of 10, 3.33, 1.11, 0.37, 0.123, 0.041, 0.0137, 0.0046, 0.0015, and 0.0005 μM), and then 250 nL of the above series solutions was transferred to the 384 well reaction plate using an ultrasonic pipetting system Echo550 for later use. 250 nL of 100% DMSO was added into a negative control well and a positive control well, respectively. Double well test.
3. 15 μL of MAT2A his-tag enzyme solution was added into both the compound well and the positive control well; and 15 μL of 1×Assaybuffer was added into the negative control well.
4. The 384 well plate reaction plate was centrifuged at 1000 rpm for 60 seconds, shaken, mixed well, and incubated for 15 minutes. 10 μL of substrate mixed solution was added into each experimental well of the 384 well reaction plate to initiate the reaction.
5. The 384 well reaction plate was centrifuged at 1000 rpm for 60 seconds, shaken, mixed well, and incubated for 150 minutes.
6. 50 μL of enzyme reaction termination solution Biomol was added into all experimental wells of the 384 well reaction plate to terminate the reaction, centrifuged at 1000 rpm for 60 seconds, and incubated for 15 minutes. OD620 was read and data was processed.
Data analysis: the inhibition rate (%) of the compound was calculated and fitted to obtain the IC50 of the tested compound. Calculation method for compound inhibition rate: Compound inhibition rate (%)=(OD620_max−OD620_stample)/(OD620_max−OD620_min)×100, wherein OD620_stample was the absorbance value of the sample well; OD620 min was the absorbance value of the positive control well, indicating the reading of the wells without enzyme activity; and OD620_max was the absorbance value of the negative control well, indicating the reading of the well without compound inhibition.

Compound | IC50 (KP-4 cells; Homo sapiens, 120 h) [nM] | IC50 (MAT2A) [nM] | IC50 (KP-4 cells) [nM]
CCOc1c(-c2ccc(OC)cc2)c(=O)n(-c2ccc3nn(C)cc3c2)c2[nH]ncc12 [Compound 3] | 64 | 19.4 | 
Cn1cc2cc(-n3c(=O)c(-c4ccc(C(F)(F)F)nc4)c(OCC4CC4)c4cn[nH]c43)ccc2n1 [Compound 104] | 8.3 | 15.7 | 
Cn1cc2cc(-n3c(=O)c(-c4ccc(Cl)cc4)c(NCC(F)(F)F)c4cn[nH]c43)ccc2n1 [Compound 63] | 2.4 | 18.2 | 
CCOc1c(-c2ccc(OC(F)F)cc2)c(=O)n(-c2ccc3nn(CC)cc3c2)c2[nH]ncc12 [Compound 19] |  | 16.6 | 7.4
CCOc1c(-c2ccc(F)cc2)c(=O)n(-c2ccc3nn(C)cc3c2)c2[nH]ncc12 [Compound 17] | 18 | 13.9 | 
CCOc1c(-c2ccc(C)cc2)c(=O)n(-c2ccc3nn(C)cc3c2)c2[nH]ncc12 [Compound 117] | 23.7 | 17.2 | 
CCOc1c(-c2ccc(Cl)cc2)c(=O)n(-c2ccc3nn(CCN(C)C)cc3n2)c2[nH]ncc12 [Compound 132] | 160 | 16.5 | 
CCOc1c(-c2ccc(OC(F)F)cc2)c(=O)n(-c2ccc3ncn(C)c3c2)c2[nH]ncc12 [Compound 22] |  | 16 | 28.1
CCOc1c(-c2ccc(Cl)cc2)c(=O)n(-c2ccc3nn(CCN(C)C)cc3c2)c2[nH]ncc12 [Compound 111] | 62.8 | 17.5 | 
COc1ccc(-c2c(OCC(F)(F)F)c3cn[nH]c3n(-c3ccc4nn(C)cc4c3)c2=O)cn1 [Compound 29] | 13.5 | 12.3 | 
CCOc1c(-c2ccc(OC)cc2)c(=O)n(-c2ccc3ncn(C)c3c2)c2[nH]ncc12 [Compound 15] | 159 | 15.3 | 
Cn1cc2nc(-n3c(=O)c(-c4ccc(Cl)cc4)c(NCC4CC4)c4cn[nH]c43)ccc2n1 [Compound 107] | 73.2 | 16.7 | 
CCOc1c(-c2ccc(Cl)cc2)c(=O)n(-c2ccc3nn(C)cc3c2)c2cn[nH]c12 [Compound 55] | 2.5 | 16.5 | 
Cn1cc2cc(-n3c(=O)c(-c4ccc(C(F)(F)F)nc4)c(NCC4CC4)c4cn[nH]c43)ccc2n1 [Compound 108] | 66.7 | 17.3 | 
CCOc1c(-c2ccc(Cl)cn2)c(=O)n(-c2ccc3nn(C)cc3c2)c2[nH]ncc12 [Compound 62] | 180 | 18 | 
CCNc1c(-c2ccc(Cl)cc2)c(=O)n(-c2ccc3nn(C)cc3n2)c2[nH]ncc12 [Compound 105] | 59 | 19.6 | 
CCOc1c(-c2ccc(Cl)cc2)c(=O)n(-c2ccc3nn(C)cc3n2)c2nn(C)cc12 [Compound 109] | 128 | 23.2 | 
CCOc1c(-c2ccc(OC(F)F)cc2)c(=O)n(-c2ccc3nn(CCO)cc3c2)c2[nH]ncc12 [Compound 20] |  | 9.8 | 224

Compound | IC50 (KP-4 cells; Homo sapiens, 120 h) [nM] | IC50 (MAT2A) [nM] | IC50 (KP-4 cells) [nM]
Cn1cc2cc(-n3c(=O)c(-c4ccc(OC(F)F)cc4)c(OCC(F)(F)F)c4cn[nH]c43)ccc2n1 [Compound 27] | 6.8 | 17.1 | 
CCOc1c(-c2ccc(Cl)cc2)c(=O)n(-c2ccc3nn(C4COC4)cc3c2)c2[nH]ncc12 [Compound 90] | 32 | 18.2 | 
COc1ccc(-c2c(OCC(F)(F)F)c3cn[nH]c3n(-c3ccc4nn(C)cc4c3)c2=O)cc1 [Compound 12] | 11.7 | 12.1 | 
CCNc1c(-c2ccc(OC)cc2)c(=O)n(-c2ccc3nn(C)cc3c2)c2[nH]ncc12 [Compound 2] | 70.8 | 17.5 | 
Cn1cc2nc(-n3c(=O)c(-c4ccc(Cl)cc4)c(OCC4CC4)c4cn[nH]c43)ccc2n1 [Compound 96] | 32 | 17.6 | 
Cn1cc2nc(-n3c(=O)c(-c4ccc(Cl)cc4)c(OCC(F)(F)F)c4cn[nH]c43)ccc2n1 [Compound 99] | 87.8 | 16.1 | 
Cn1cc2cc(-n3c(=O)c(-c4ccc(Cl)cc4)c(OCC4CC4)c4cn[nH]c43)ccc2n1 [Compound 50] | 21.4 | 13.6 | 
Cc1ccc(-c2c(OCC(F)(F)F)c3cn[nH]c3n(-c3ccc4nn(C)cc4c3)c2=O)cn1 [Compound 52] | 9 | 17.6 | 
CCOc1c(-c2ccc(OC(F)F)cc2)c(=O)n(-c2ccc3nn(C)cc3c2)c2nn(C)cc12 [Compound 45] | 89.1 | 10.5 | 
CCNc1c(-c2ccc(Cl)cc2)c(=O)n(-c2ccc3nn(C)cc3c2)c2[nH]ncc12 [Compound 11] | 4.9 | 14.2 | 
CCOc1c(-c2ccc(OC)nc2)c(=O)n(-c2ccc3nn(C)cc3c2)c2[nH]ncc12 [Compound 126] | 38 | 12.6 | 
CCOc1c(-c2ccc(Cl)cc2)c(=O)n(-c2ccc3nn(C)cc3n2)c2[nH]ncc12 [Compound 84] | 25 | 20.7 | 
CCNc1c(-c2ccc(OC)cc2)c(=O)n(-c2ccc(=O)n(C)c2)c2[nH]ncc12 [Compound 7] | > 10000 | 35.3 | 
Cn1cnc2ccc(-n3c(=O)c(-c4ccc(Cl)cc4)c(OCC(F)(F)F)c4cn[nH]c43)cc21 [Compound 36] | 39.2 | 17 | 
CCOc1c(-c2ccc(Cl)cc2)c(=O)n(-c2ccc3nn(C)cc3c2)c2nn(C)cc12 [Compound 134] | 6.1 | 19.1 | 
CCNc1c(-c2ccc(C(F)(F)F)nc2)c(=O)n(-c2ccc3nn(C)cc3c2)c2[nH]ncc12 [Compound 106] | 234 | 28.8 | 
CCOc1c(-c2ccc(C3CC3)nc2)c(=O)n(-c2ccc3nn(C)cc3c2)c2[nH]ncc12 [Compound 47] | 6.6 | 14.8 | 
Cn1cc2cc(-n3c(=O)c(-c4ccc(C5CC5)nc4)c(OCC(F)(F)F)c4cn[nH]c43)ccc2n1 [Compound 53] | 19.5 | 16 | 
